In patent publication US20230255970A1, “COMPOSITIONS AND METHODS FOR TREATING PROLIFERATIVE DISEASES” (The Broad Institute, Inc., priority 2020, published 2023):

Tests used:
TEAD-YAP interaction = details: HEK-TIYL cells, PubChem; cited from earlier work
[1] = tested on: TC32 human Ewing's family sarcoma cells; test: Proliferation assay, TC32 cells; assay type: cell-based; details: 10 μM daily for 72 hours
Excerpt: (§1) YAP1 cell culture and treatments: Eisinger lab: Murine KP230 cells, a Yap1-dependent cancer cell line, were derived from a tumor from the KP mouse model (Kras^G12/D; Trp53^f/fl), as described in Eisinger-Mathason, T. S. K. et al., Proc. Natl. Acad. Sci. U.S.A 112 (2015): E3402-11, which is hereby incorporated by reference in its entirety. STS-109 UPS cells were derived from a human UPS tumor and validated by Rebecca Gladdy, MD (Sinai Health System, Toronto, Ontario, Canada). TC32 cells were a gift from Patrick Grohar, MD, PhD (Children's Hospital of Philadelphia). HT-1080, HCT-116, and HEK293T cells were purchased from ATCC. KP230, HT-1080, and HEK-293T cells were grown in DMEM with 10% FBS, 1% L-glutamine, and 1% penicillin/streptomycin (P/S). STS-109 cells were cultured in DMEM with 20% FBS, 1% L-glutamine, and 1% P/S. TC32 cells were grown in RPMI with 10% FBS, 1% L-glutamine, and 1% P/S. HCT-116 cells were cultured in McCoy's 5A medium with 10% FBS and 1% P/S. All cells were confirmed to be negative for mycoplasma contamination and were maintained in an incubator at 37C with 5% CO2. […]
NB4A treatment: Cells were treated with 10 μM of each inhibitor or an equivalent volume of DMSO every 24 hours for 3-8 days, and counted with a hemocytometer with trypan blue exclusion daily (KP230, HT-1080, TC32, HCT-116), or every 2 days (STS-109).

KP230 cells = test: RNA sequencing and gene set enrichment analysis in KP230 cells; assay type: cell-based, mouse; details: 10 μM daily for 72 hours
Excerpt: as §1, with “CO2. For experimental purposes, cells were cultured for up to 20 passages before being discarded, and were grown to approximately 50% confluence to circumvent the effects of high cell density on Yap1 expression and activity.” for “CO2.”

Yap1 = Yap1 protein levels in KP230 cells (western blot, immunofluorescence); assay type: cell-based, mouse; details: 72 hours
Excerpt: as §1
YAP1-related Western blotting: The cells were lysed in RIPA buffer (Pierce) supplemented with Halt Protease inhibitor cocktail and Halt Phosphatase inhibitor cocktail. […] The protein concentration of each sample was quantified using the Pierce BCA protein assay (Thermo Fisher). […]

Compound: c1ccc(CNc2ncnc3ccccc23)cc1 [BRD-K43796186, N-benzylquinazolin-4-amine]
- inhibitors of TEAD-YAP interaction (TEAD-YAP interaction): showed activity
- proliferation [1]: inhibited the proliferation
- pathways down-regulated (GSEA) (KP230 cells): epithelial-mesenchymal transition, angiogenesis, and glycolysis
- pathways up-regulated (GSEA) (KP230 cells): interferon alpha and gamma responses
- Yap1 protein levels (Yap1): reduced
